Measurements published in patent US11333660B2, “Analytical process for predicting the therapeutic effect of BH3 mimetics” (MEDIZINISCHE HOCHSCHULE HANNOVER, priority 2017, dated 2022).

How the values were obtained:
[1] = system: human CD45+ cells (BV173) from spleen of ABT-199/DEX/DAS treated mouse; experiment: TMRE FACS on human CD45+ spleen cells from the ABT-199/DEX/DAS treated mouse; format: cell-based; details: for TMRE fluorescence / MOMP (FIG. 10): ABT-199/DEX/DAS treated mouse CD45+ cells, 1 μM, 1 h; for TMRE fluorescence relative to 100% at beginning: ABT-199/DEX/DAS treated mouse spleen CD45+ cells, ABT-199 10 μM 1 h, FCCP 5 μM 15 min
Protocol: (§1) Cells were concurrently immunologically stained with APC-labelled anti-human CD45 antibody, to discriminate human leukemic from murine cells, and with TMRE. Measurement was by FACS, with gating for live human cells.
One of these BH3 mimetics was added to a separate aliquot of the cells suspended in cell culture medium to a final concentration of 1 μM. Concurrently, the cells were immunologically stained by adding a APC-labelled anti-human CD45 antibody to identify the tumour cells, and by adding TMRE. After 1 h, cells were analysed by FACS, with the gating set according to side scatter and forward scatter to select for live cells, and to select for CD45+ cells showing TMRE fluorescence.

[2] = system: human CD45+ cells (BV173) from spleen of untreated control mouse; experiment: TMRE FACS on human CD45+ spleen cells from the control mouse; format: cell-based; details: for TMRE fluorescence / MOMP (FIG. 10): control mouse CD45+ cells, 1 μM, 1 h; for TMRE fluorescence relative to 100% at beginning: FCCP 5 μM 15 min
Protocol: as §1
[…] Concurrently, the cells were immunologically stained by adding a APC-labelled anti-human CD45 antibody to identify the tumour cells, and by adding TMRE. After 1 h, cells were analysed by FACS, with the gating set according to side scatter and forward scatter to select for live cells, and to select for CD45+ cells showing TMRE fluorescence.

[3] = system: CD19+ lymphoma cells in PBMC of a mantle-cell lymphoma patient; experiment: TMRE FACS on live CD19+ cells of PBMC from a mantle-cell lymphoma patient; format: cell-based, human; details: 3 h; for effect of inducing MOMP (reduced TMRE fluorescence in CD19+ cells): 1 μM, FIG. 7; for % (MeanFL relative to negative control) / MeanFL (mean TMRE fluorescence for the live CD19+ cells): CD19 gate, BH3 mimetics 1000 nM
Protocol: From a blood sample that was drawn from a patient diagnosed to have mantle-cell lymphoma, PBMC were isolated by density gradient centrifugation and suspended in cell culture medium. No further separation of cells was done but all the PBMC were contained in each aliquot dispensed from the isolated PBMC. […] For measurement, TMRE was added for measuring mitochondrial membrane potential, and for discriminating CD19+ lymphoma cells from normal CD19− cells, anti-CD19 antibody, APC-labelled, was added.
Measurement was by FACS after 3 h incubation under cell culture conditions subsequent to addition of the compounds to the aliquots of the cells.
The FACS results shown in FIG. 7 were taken in one measurement for each aliquot. […] This gating was applied to the measurement of the dye of the anti-CD19 antibody (CD19 APC) as shown in the center column (b, e, h, k, n, q) (R2). The measurement results for the viable lymphoma CD19+ cells in relation to MOMP are shown in the right hand column (c, f, i, l, o, r), with TMRE fluorescence indicating MOMP, i.e. lower TMRE fluorescence indicating increased MOMP.

[4] = system: in vitro cultivated BV173 cells; experiment: TMRE FACS on in vitro cultivated BV173 cells; format: cell-based, human; details: in vitro cultured BV173, ABT-199 10 μM 1 h; for TMRE fluorescence relative to 100% at beginning: FCCP 5 μM 15 min
[5] = system: PBMC from a healthy donor; experiment: TMRE FACS on PBMC from a healthy donor; format: cell-based, human; details: 3 h, ABT-199 1 μM, FCCP 5 μM, mock MFI 232
Protocol: (§2) PBMC were isolated by density gradient centrifugation using Biocoll from the heparinized blood sample of a patient diagnosed to have CLL (ABT-199, Venetoclax, is approved for treatment of CLL with 17p-deletion). As a comparison, PBMC from a healthy donor were isolated. PBMC were suspended in RPMI1640 cell culture medium and transferred as aliquots into separate tubes, to which ABT-199 was added to a final concentration of 1 μM and incubated at 37° C. for 3 h in a 5% CO2 atmosphere. Subsequently, TMRE was added to 50 nM and aliquots were further incubated for 30 min, then analysed by FACS according to the invention. As a negative control (mock), physiological saline was added, as a positive control FCCP to 5 μM (FCCP).

[6] = system: PBMC from a CLL patient; experiment: TMRE FACS on PBMC from a CLL patient; format: cell-based, human; details: 3 h, ABT-199 1 μM, FCCP 5 μM, mock MFI 121
Protocol: as §2

[7] = system: PBMC; experiment: analytical process: TMRE fluorescence by FACS on PBMC aliquots (FIG. 1b); format: cell-based
Protocol: In this analysis incubation of PBMC aliquots in cell culture medium with the pharmaceutical compound, negative control or positive control was for 30 min, incubation after subsequent addition of fluorescent dye TMRE was for 10 min, both at 37° C., 5% CO2 atmosphere as cell culture conditions.

[8] = system: blood cells obtained from a CLL patient; details: 6 h after contact in vitro; cited from earlier work
[9] = system: PBMC or BM mononuclear cells from CML patients in chronic phase; experiment: TMRE FACS on PBMC or BM cells from CML-CP patients; format: cell-based, human; details: ABT-199 1 μM, 3 h, CML-CP samples (n=7)
Protocol: (§3) PBMC or BM mononuclear cells were isolated by density gradient centrifugation from blood or bone marrow samples originating from patients who were newly diagnosed as ALL (n=12), from blood or bone marrow samples originating from CML patients in chronic phase (CML-CP, n=7), and from blood samples obtained from healthy volunteers (n=6). In accordance with the analytical process, PBMC or BM cells were incubated in cell culture medium with ABT-199 added to 1 μM for 3 h at 37° C. in a 5% CO2 atmosphere for cell culture conditions, followed by addition of TMRE to 50 nM and incubation for another 30 min, then analysed by FACS for fluorescence by TMRE.

[10] = system: BCR-ABL negative REH cells; experiment: TMRE FACS measurement of MOMP in REH cells; format: cell-based; details: ABT-199 10 nM, 3 h
Protocol: As representatives for isolated PBMC, BM or LN mononuclear cells, the B-ALL cell lines SUP-B15, which expresses BCR-ABL (BCR-ABL-positive), and the BCR-ABL negative REH were used in the analytical process in suspension in cell culture medium RPMI1640. As a positive control for MOMP, FCCP was added to 5 μM to one aliquot, as a negative control an aliquot of the suspended cells was used with addition of the same volume of physiological saline, and ABT-199 was added to 10 nM final concentration. After incubation at 37° C. for 3 h, TMRE was added to a final concentration of 50 nM and the aliquots were incubated for further 15 min at 37° C., in a 5% CO2 atmosphere each time.

[11] = system: B-ALL cell line SUP-B15 (BCR-ABL-positive); experiment: TMRE FACS measurement of MOMP in SUP-B15 cells; format: cell-based; details: 3 h
Protocol: As representatives for isolated PBMC, BM or LN mononuclear cells, the B-ALL cell lines SUP-B15, which expresses BCR-ABL (BCR-ABL-positive), and the BCR-ABL negative REH were used in the analytical process in suspension in cell culture medium RPMI1640. […] After incubation at 37° C. for 3 h, TMRE was added to a final concentration of 50 nM and the aliquots were incubated for further 15 min at 37° C., in a 5% CO2 atmosphere each time.
(§4) As a positive control, FCCP was added to one aliquot of the cell suspension to 5 μM final concentration. TMRE fluorescence was measured by FACS after 30 min incubation after addition of TMRE.

[12] = system: PBMC or BM mononuclear cells from ALL patients; experiment: TMRE FACS on PBMC or BM cells from ALL patients; format: cell-based, human; details: ABT-199 1 μM, 3 h, ALL samples (n=12)
Protocol: as §3

[13] = system: SUP-B15 cells; experiment: propidium iodide (PI) staining of SUP-B15 cells; format: cell-based; details: 1 μM, 24 h process
Protocol: as §4
For comparison, apoptosis was measured by propidium iodide (PI) staining, the entire process having a duration of 24 h.

[14] = system: PBMC from healthy donors; experiment: TMRE FACS on PBMC from healthy volunteers; format: cell-based, human; details: ABT-199 1 μM, 3 h, healthy donors (n=6)
Protocol: as §3

[15] = CD19+ cells, BH3 mimetics 1 μM, FCCP 5 μM, in comparison to the negative control
[16] = control mouse spleen CD45+ cells, ABT-199 10 μM 1 h

| SMILES | TMRE fluorescence / MOMP (FIG. 10) [1] | TMRE fluorescence / MOMP (FIG. 10) [2] | effect of inducing MOMP (reduced TMRE fluorescence in CD19+ cells) [3] | % (MeanFL relative to negative control) ([3]; FCCP 5 μM) | MeanFL (mean TMRE fluorescence for the live CD19+ cells) ([3]; FCCP 5 μM) | mean TMRE fluorescence relative to negative control [3, 15] | TMRE fluorescence relative to 100% at beginning [4] | MFI (TMRE) [5] | TMRE fluorescence relative to 100% at beginning [1] | MFI (TMRE) [6] | TMRE fluorescence relative to 100% at beginning [2, 16] | other results |
| --- | --- | --- | --- | --- | --- | --- | --- | --- | --- | --- | --- | --- |
| Cc1c(-c2c(-c3ccc(F)o3)sc3ncnc(O[C@H](Cc4ccccc4OCc4ccnn4CC(F)(F)F)C(=O)O)c23)ccc(OCCN2CCN(C)CC2)c1Cl [S63845] | high TMRE fluorescence | high TMRE fluorescence | less pronounced effect | 56.7% | 396 |  |  |  |  |  |  | proportion of cells without MOMP [3, 15]: 56.7% |
| Cc1c(-c2ccc(N3CCc4cccc(C(=O)Nc5nc6ccccc6s5)c4C3)nc2C(=O)O)cnn1CC12CC3CC(CC(C3)C1)C2 [A1331852] | strongly reduced TMRE fluorescence | strongly reduced TMRE fluorescence | less pronounced effect | 29.1% | 203 | 29.1% |  |  |  |  |  |  |
| N#CC(C#N)=NNc1ccc(OC(F)(F)F)cc1 [FCCP, carbonyl cyanide-4-(trifluoro-methoxy)phenylhydrazone] |  |  |  | 15.6% | 109 | 15.6% | ~20% | 106 | ~20% | 60 | ~20% | mean fluorescence intensity (MFI) of TMRE ([7]; incubation 30 min, TMRE 10 min, 37° C., negative control MFI 612): 95 |
| CN1CC[C@H](c2c(O)cc(O)c3c(=O)cc(-c4ccccc4Cl)oc23)[C@H](O)C1 [Flavopiridol] |  |  |  |  |  |  |  |  |  |  |  | mitochondrial membrane depolarization (JC-1) [8]: mitochondrial membrane depolarization was detected |
| CC1(C)CCC(CN2CCN(c3ccc(C(=O)NS(=O)(=O)c4ccc(NCC5CCOCC5)c([N+](=O)[O-])c4)c(Oc4cnc5[nH]ccc5c4)c3)CC2)=C(c2ccc(Cl)cc2)C1 [ABT-199] |  |  | effective in inducing MOMP | 9.3% | 65 | 9.3% | approx. 60% | 242 | no response | 53 | approx. 60% | induction of apoptosis (TMRE FACS) [9]: essentially no induction of apoptosis; MFI (TMRE) in comparison to the negative control [10]: essentially remains unaffected; proportion of cells with MOMP [4]: 40%; induction of apoptosis by the process of the invention (TMRE) ([11]; 1 μM): significant induction of apoptosis; reduction of MFI (TMRE) ([11]; ABT-199 10 nM, versus negative control): approx. 40%; induction of apoptosis (TMRE FACS) [12]: strong induction of apoptosis; FACS peak distribution of TMRE fluorescence ([7]; ABT-199 5 μM to 10 μM, 30 min incubation): the peak at the position of the positive control increasing with the concentration; induction of apoptosis by PI staining [13]: significant induction of apoptosis; proportion of cells with MOMP [2, 16]: 40%; induction of apoptosis (TMRE FACS) [14]: essentially no induction of apoptosis |
| CN(C)CC[C@H](CSc1ccccc1)Nc1ccc(S(=O)(=O)NC(=O)c2ccc(N3CCN(Cc4ccccc4-c4ccc(Cl)cc4)CC3)cc2)cc1[N+](=O)[O-] [ABT-737] | reduced TMRE fluorescence | reduced TMRE fluorescence | effective in inducing MOMP | 9.9% | 69 | 9.9% |  |  |  |  |  |  |
